Experimental data as given in paper PMC8038991, “R-catcher, a potent molecular tool to unveil the arginylome” (Cellular and Molecular Life Sciences: CMLS, 2021).
Entries after “also recorded” stand apart in the source; their conditions may differ.

Columns and labels:
[1] = Identification of arginylation sites, GelNrich and in-gel digestion LC-MS/MS
From the text: Upon separation of the immunoprecipitated protein by SDS-PAGE and staining with Coomassie Blue, the corresponding protein band was excised, half of which was subjected to GelNrich and the other half to conventional in-gel digestion GelNrich is an N-terminal peptide enrichment method based on in-gel digestion. The method includes in-gel protein level labeling of primary amines using d6-acetic anhydride and post-digestion negative selection of labeled N-terminal peptide(s) using N-hydroxysuccinimide activated agarose beads. Peptides recovered from GelNrich or in-gel digestion were dried in a vacuum evaporator and reconstituted in 0.1% formic acid. An aliquot was injected from a cooled (10 °C) auto-sampler into a reversed-phase EASY-Spray column (25 cm × 75 μm, Thermo Fisher Scientific) on an Eksigent nanoLC-ultra 1D plus system (Danaher Corporation) at a flow rate of 300 nL/min. Prior to use, the column was equilibrated with 96% buffer A (0.1% formic acid in water) and 4% buffer B (0.1% formic acid in acetonitrile). The peptides were eluted with a linear gradient from 4 to 35% buffer B over 60 min and 35–80% buffer B over 2 min followed by an organic wash and aqueous re-equilibration at a flow rate of 300 nL/min with a total run time of 96 min. The HPLC system was coupled to a Q-Exactive mass spectrometer (Thermo Fisher Scientific) operated in a data-dependent acquisition (DDA) mode. […]

R-catcher [2] = experiment: R-catcher pulldown in +/+ and ATE1-/- MEFs; format: binding; details: +/+ versus ATE1-/- MEFs, MG132 plus TG, 9 h, Fig. 6b
Description: (§1) For small-scale R-catcher pull-down assays, 300 µg of purified R-catcher was conjugated with 120 µl of Strep-Tactin sepharose resin by incubating overnight at 4 °C. To test R-catcher’s ability to capture known arginylated proteins, such as R-BiP, R-PDI, R-nsP4 and R-RGS4, plasmids encoding Ub-X-(BiP, PDI and nsP4) or MX-RGS4 (X = Arg or Val) were transiently transfected into HEK293 cells. After 24 h, cells were treated with 10 µM MG132 and 100 nM thapsigargin for another 24 h. […]
(§2) Plasmids encoding the proteins were transiently transfected to HeLa cells for 24 h and stimulated with 5 µM MG132 plus 100 nM TG for another 24 h. […] Cell lysates were subjected to R-catcher pulldown, and bound proteins were detected by western blot analysis. c R-catcher pull-down assays to evaluate if the arginylation of FBNL1, SERPINH1, CLUS and PRDX4 is induced in response to MG132 plus thapsigargin. d X-peptide pulldown assays to confirm no interaction of R-catcher with Nt-Ala19 of SERPINH1 peptides and Nt-Trp38 of PRDX4 peptides. […] Bound GST-ZZ (N132D) was detected by immunoblotting. e Identification of arginylated sites employing mutational analysis. […]

R-catcher [3] = experiment: R-catcher pulldown of P1' site Gly mutants; format: binding, human; details: E20 SERPINH1, E30 (printed) PRDX4, D23 CLUS, D30 FBLN1 to Gly, Fig. 6e
Description: as §1, §2

R-catcher [4] = experiment: R-catcher pulldown of putative arginylated ER proteins, HeLa; format: binding, human; details: 5 µM MG132 plus 100 nM TG, RA competition, Fig. 6a
Description: For small-scale R-catcher pull-down assays, 300 µg of purified R-catcher was conjugated with 120 µl of Strep-Tactin sepharose resin by incubating overnight at 4 °C. To test R-catcher’s ability to capture known arginylated proteins, such as R-BiP, R-PDI, R-nsP4 and R-RGS4, plasmids encoding Ub-X-(BiP, PDI and nsP4) or MX-RGS4 (X = Arg or Val) were transiently transfected into HEK293 cells. After 24 h, cells were treated with 10 µM MG132 and 100 nM thapsigargin for another 24 h. Cells were harvested and lysed in hypotonic buffer and 300 µg total protein was incubate with 25 µl R-catcher-sepharose resin in binding buffer (20 mM HEPES pH 7.9, 0.05% Tween 20, 10% glycerol, 0.2 M KCl, protease inhibitor and phosphatase inhibitor) for 3 h with gentle rotation at 4 °C. After three washes with binding buffer, bound proteins were dissociated with 2 × SDS sample buffer and boiling at 100 °C and subjected to immunoblotting using anti-myc or flag antibodies.
Plasmids encoding the proteins were transiently transfected to HeLa cells for 24 h and stimulated with 5 µM MG132 plus 100 nM TG for another 24 h. Cell lysates were incubated with R-catcher immobilized on tactin beads for 3 h. After wash, bound proteins were eluted with 2 × SDS sample buffer followed by boiling at 100 °C for 10 min and visualized by western blot analysis. b R-catcher pulldown assays to validate ATE1-dependent arginylation of […]1, PRDX4, FBLN1 and CLUS. Plasmids encoding […]1, PRDX4, FBLN1 and CLUS were transiently transfected into + / + and ATE1^−/− MEFs for 24 h and stimulated with 5 µM MG132 plus 100 nM TG for another 9 h. Cell lysates were subjected to R-catcher pulldown, and bound proteins were detected by western blot analysis. c R-catcher pull-down assays to evaluate if the arginylation of FBNL1, SERPINH1, CLUS and PRDX4 is induced in response to MG132 plus thapsigargin. d X-peptide pulldown assays to confirm no interaction of R-catcher with Nt-Ala19 of SERPINH1 peptides and Nt-Trp38 of PRDX4 peptides. X-peptides where X is A19 (SignalP predicted P1’ site), E20 (next possible P1’ site predicted by PrediSi) or R19 (Arginylated form of Glu) for SERPINH1 and W38 (SignalP predicted P1’ site), E39 (next possible P1’ site predicted by PrediSi) or R38 (Arginylated form) for PRDX4. Biotinylated X-peptides immobilized on streptavidin agarose beads were incubated with affinity-purified GST-ZZ ([…]). Bound GST-ZZ (N132D) was detected by immunoblotting. e Identification of arginylated sites employing mutational analysis. Predicted P1’ sites of SERPINH1, PRDX4, CLUS and FBLN1 were substituted to Gly, and the inhibitory effect of the mutation on binding with R-catcher was examined by performing R-catcher pulldown assays

GST-ZZ122-175^N132D = GST-ZZ122-175^N132D pulldown from HeLa lysates (MG132 plus TG); format: binding, human; details: HeLa lysate, immunoblot
From the text: Using these lysates and purified GST tagged ZZ122-175^N132D (Supplementary Fig. 4A) immobilized on glutathione resin, we performed pulldown assays. […] In addition to pulling down R-BiP and R-CRT, GST-ZZ122-175^N132D was able to capture polyubiquitinated proteins, which were also disrupted by the D129A mutation and RA dipeptide competition (Supplementary Fig. 4B). This was expected because arginylated proteins are known to be ubiquitinated by E3 ligases containing a UBR box leading to their proteasomal degradation.
Fig. 4 ZZ122-175 ^N132D is capable of capturing known arginylated proteins in cells. a Western blot analysis to visualize arginylated BiP and CRT. […] N-terminally arginylated BiP and CRT were detected by immunoblotting using anti R-BiP and R-CRT antibodies. b GST pulldown assays to test the ability of wild type (WT) and N132D GST-ZZ in capturing cellular R-BiP and R-CRT. […] Pulled down R-BiP and R-CRT were detected using anti R-BiP and R-CRT antibodies. c Schematic drawing illustrating R-catcher. […] R-catcher bound arginylated proteins were detected by immunoblotting using anti-Myc or Flag antibody. e R-catcher pulldown assay to capture R-BiP and R-CRT induced in HeLa cells stimulated with MG132 plus TG in the absence or presence of 20 mM dipeptides TEXT PRINTED IN THE PICTURE: (C) R-catcher: ~ 9 kDa

## CLU: clusterin
[1]
  arginylation detected by mass spectrometry: arginylation at the D23 residue
R-catcher [2]
  capture by R-catcher, ATE1 dependence: captured by R-catcher in an ATE1-dependent manner
R-catcher [3]
  effect of Gly substitution of P1' site on interaction with R-catcher: significantly impaired their interaction with R-catcher; also recorded: abolished their binding with R-catcher
R-catcher [4]
  binding with R-catcher, Nt-Arg dependence: Nt-Arg-dependent binding with R-catcher

## R-BiP: Nt-arginylated BiP
GST-ZZ122-175^N132D
  pulldown by GST-ZZ122-175^N132D: efficiently pull down
R-catcher [4]
  binding with R-catcher, Nt-Arg dependence: bound R-catcher in an Nt-Arg-dependent manner
